Experimental data taken from patent publication US12595504B2, “Methods for screening compounds for bactericidal activity and for determining the sensitivity of bacterial samples” (priority 2020, dated 2026).
Values after ≈ are worked out from the molar mass of the structure shown. Read-outs that look alike come from different tables or passages of the source.

Experiments:
[1] = tested on: Escherichia coli MG1655; experiment: Antibiotic MIC determination (serial twofold dilutions, OD600 during 17 hours at 37° C.); format: cell-based; settings: for MIC: Escherichia coli
Procedure: The Minimal Inhibitory Concentration (MIC) of the antibiotics was determined under the same culture conditions as the tests using the ATP assay kit. […] An exponentially growing culture (OD600=0.3) was added to each well (60 μl/well) of a sterile microtiter plate containing the test concentration of antibiotic (40 μl/well). The volume was completed to 120 μl with medium and OD600 nm measurements were performed using a microtiter plate reader (Infinite 200 PRO, TECAN) during 17 hours at 37° C.
In all the following experiments, the MIC values were measured for each antibiotic with parameters such as temperature, OD600 and equipment identical to those used for the bioluminescence assay.

[2] = tested on: E. coli MG1655 reporter cells; format: cell-based, Escherichia coli; settings: for Lag before ATP release (shortest, incompressible value): highest concentrations tested
Procedure: The classical luciferase was from Molecular Probes (ATP Determination Kit (A22066)). The thermostable luciferase was from “CheckLite AT100” (kikkoman). The Luciferin-luciferase reagents were prepared following manufacturer instructions. Bacteria from exponentially growing cultures (OD600=0.3) were added to each well (60 μl/well) of a black 96-microtiter plate (Greiner Bio-one, 655076) and 20 μl of the luciferin-luciferase reagent solution was added. The microtiter plate was incubated 5 min at 37° C. for reaction with the luciferase to eliminate traces of extracellular ATP. Then 40 μl of antibiotic solution (3 times concentrated) prepared in the culture medium were added. Bioluminescence of each well was monitored for 4 hours under shaking (218 rpm) and at 28 or 37° C., depending on the experiments (see legends of Figures). The reagent stability in presence or absence of antibiotics was checked in control experiments without bacteria but with 4 pmoles of ATP. Tests were also performed in 384-microtiter plates (Greiner Bio-one, 784076).
Aminoglycosides are bactericidal antibiotics causing translational miscoding with lethal consequences for the cell. Leakage of small molecules following an aminoglycoside shock was previously identified by different methods including radiolabelling. Therefore, the inventors investigated the response of live cells to aminoglycoside stress.

[3] = target: T1, thermostable luciferase (Nipponoluciola cruciata, UniProt P13129, A536K/G484A/G534A/I532L/M501V/N494T/N510T/P452A/P477D/R513K/R519V/S465N/S491H/S509T/T217I/T219I/V239I/V459I/V474L/V478D/V500I); format: biochemical
T1 construct: purchased Kikkoman CheckLite AT100
T1 sequence (P13129 other isoform, or with tags, fused parts or gaps with the stated changes): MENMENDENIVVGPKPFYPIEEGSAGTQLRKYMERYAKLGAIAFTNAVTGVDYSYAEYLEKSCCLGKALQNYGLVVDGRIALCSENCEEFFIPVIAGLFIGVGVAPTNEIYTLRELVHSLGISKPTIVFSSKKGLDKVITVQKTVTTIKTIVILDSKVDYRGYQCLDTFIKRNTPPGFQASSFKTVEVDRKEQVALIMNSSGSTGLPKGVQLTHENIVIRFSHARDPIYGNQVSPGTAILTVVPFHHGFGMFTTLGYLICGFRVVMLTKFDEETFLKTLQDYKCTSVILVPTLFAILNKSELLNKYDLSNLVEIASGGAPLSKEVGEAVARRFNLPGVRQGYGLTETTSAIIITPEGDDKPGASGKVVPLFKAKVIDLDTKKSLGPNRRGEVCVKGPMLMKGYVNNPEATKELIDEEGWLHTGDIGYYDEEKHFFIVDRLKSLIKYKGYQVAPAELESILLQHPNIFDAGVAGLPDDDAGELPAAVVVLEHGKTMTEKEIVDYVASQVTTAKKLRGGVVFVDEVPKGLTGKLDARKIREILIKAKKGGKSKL
Procedure: FIG. 5. […] The luciferase-luciferin reagent was preincubated 40 min at 37° C. in presence of various antibiotics in LB before the addition of 30 nM ATP (in the absence of bacteria).
The classical luciferase was from Molecular Probes (ATP Determination Kit (A22066)). The thermostable luciferase was from “CheckLite AT100” (kikkoman). The Luciferin-luciferase reagents were prepared following manufacturer instructions. Bacteria from exponentially growing cultures (OD600=0.3) were added to each well (60 μl/well) of a black 96-microtiter plate (Greiner Bio-one, 655076) and 20 μl of the luciferin-luciferase reagent solution was added. The microtiter plate was incubated 5 min at 37° C. for reaction with the luciferase to eliminate traces of extracellular ATP. Then 40 μl of antibiotic solution (3 times concentrated) prepared in the culture medium were added. Bioluminescence of each well was monitored for 4 hours under shaking (218 rpm) and at 28 or 37° C., depending on the experiments (see legends of Figures). The reagent stability in presence or absence of antibiotics was checked in control experiments without bacteria but with 4 pmoles of ATP. […]
Bioluminescence was thus measured after preincubation of luciferase-lucifering reagent with the antibiotics at their maximal concentration used in this study in LB before the addition of 30 nM ATP (in the absence of bacteria).

[4] = MG1655, read-out: MIC in MOPS glucose 0.4%, MOPS minimal medium glucose 0.4%, 37° C.
[5] = MG1655, LB medium, OD600 0.15 final, 37° C., read-out: MIC in LB
[6] = MOPS minimal medium (glucose 0.4%), FIG. 11
[7] = LB medium, OD600 0.15 final, 37° C.
[8] = antibiotic at 3.125 μg/mL, LB, 37° C.
[9] = antibiotic at 6.25 μg/mL, LB, 37° C.
[10] = antibiotic at 12.5 μg/mL, LB, 37° C.
[11] = antibiotic at 25 μg/mL, LB, 37° C.
[12] = antibiotic at 50 μg/mL, LB, 37° C.
[13] = antibiotic at 100 μg/mL, LB, 37° C.
[14] = antibiotic at 200 μg/mL, LB, 37° C.
[15] = MOPS minimal medium glucose 0.4%, 37° C.
[16] = antibiotic at 400 μg/mL, LB, 37° C.

Compound	MIC [1, 4]	MIC [1, 5]	MIC in LB [1, 7]	Lag time before ATP [2, 10]	Lag time before ATP [2, 11]	Lag time before ATP [2, 12]	Lag time before ATP [2, 13]	Lag time before ATP [2, 14]	further results
CC1=C(C(=O)O)N2C(=O)[C@@H](NC(=O)[C@H](N)c3ccccc3)[C@H]2SC1 [Cephalexin]	17.4 µg/mL (≈ 50.1 µM)	34.7 µg/mL (≈ 99.9 µM)	–	–	–	–	–	–	Shape of ATP release trace ([2]; LB medium, 37° C., FIG. 8): multiphasic; Shape of ATP release trace [2, 6]: monophasic; Lag time before ATP ([2]; antibiotic at 8.8 μg/mL, LB, 37° C.): 34.3 min; Lag time before ATP ([2]; antibiotic at 17.5 μg/mL, LB, 37° C.): 9.45 min; Lag time before ATP ([2]; antibiotic at 35 μg/mL, LB, 37° C.): 5 min; Lag time before ATP ([2]; antibiotic at 70 μg/mL, LB, 37° C.): 3.6 min; Lag time before ATP ([2]; antibiotic at 140 μg/mL, LB, 37° C.): 3.6 min; Lag before ATP release (shortest, incompressible value) ([2]; LB, 37° C.): 3.6 min
COc1ccc(C[C@H](N)C(=O)N[C@H]2[C@@H](O)[C@H](n3cnc4c(N(C)C)ncnc43)O[C@@H]2CO)cc1 [Puromycin]	871 µg/mL (≈ 1850 µM)	435 µg/mL (≈ 923 µM)	377 µg/mL (≈ 800 µM)	–	–	–	–	–	ATP leakage ([2]; sub-MIC concentrations, LB, FIG. 9): very weak leakage; Effect on the activity of the bioluminescence assay ([3]; preincubation with antibiotic in LB, 30 nM ATP, no bacteria, inhibition only at concentration above the MIC): significant inhibition of bioluminescence
CC1(C)S[C@@H]2[C@H](NC(=O)[C@H](N)c3ccc(O)cc3)C(=O)N2[C@H]1C(=O)O [Amoxicillin]	12.5 µg/mL (≈ 34.2 µM)	12.5 µg/mL (≈ 34.2 µM)	–	11.4 min	8 min	6.9 min	–	–	Lag time before ATP [2, 8]: 39.3 min; Lag time before ATP [2, 9]: 31.4 min
C=CC1=C(C(=O)O)N2C(=O)[C@@H](NC(=O)/C(=N\OCC(=O)O)c3csc(N)n3)[C@H]2SC1 [Cefixime]	50 µg/mL (≈ 110 µM)	50 µg/mL (≈ 110 µM)	–	17.5 min	16.7 min	15.2 min	14.9 min	14.2 min	–
CO/N=C(\C(=O)N[C@@H]1C(=O)N2C(C(=O)O)=C(CSc3nc(=O)c(=O)[nH]n3C)CS[C@H]12)c1csc(N)n1 [Ceftriaxone]	6.25 µg/mL (≈ 11.3 µM)	12.5 µg/mL (≈ 22.5 µM)	–	19.2 min	16.5 min	13.9 min	–	–	Lag time before ATP [2, 8]: 29.7 min; Lag time before ATP [2, 9]: 21.2 min
CC[C@H]1OC(=O)[C@H](C)[C@@H](O[C@H]2C[C@@](C)(OC)[C@@H](O)[C@H](C)O2)[C@H](C)[C@@H](O[C@@H]2O[C@H](C)C[C@H](N(C)C)[C@H]2O)[C@](C)(O)C[C@@H](C)C(=O)[C@H](C)[C@@H](O)[C@]1(C)O [Erythromycin]	1600 µg/mL (≈ 2180 µM)	400 µg/mL (≈ 545 µM)	–	–	–	–	–	–	Amplitude of ATP release ([2]; bacteriostatic antibiotics, LB, FIG. 9): very weak amplitude
Gentamicin	–	–	5.7 µg/mL	12.9 min	–	–	–	–	MIC in MOPS glucose 0.4% [1, 15]: 0.6 µg/mL; Shape of ATP release trace ([2]; LB medium, 37° C., FIG. 8): bi-phasic; Shape of ATP release trace [2, 6]: monophasic; Lag time before ATP ([2]; antibiotic at 0.19 μg/mL, LB, 37° C.): 136.1 min; Lag time before ATP ([2]; antibiotic at 0.39 μg/mL, LB, 37° C.): 136.3 min; Lag time before ATP ([2]; antibiotic at 0.78 μg/mL, LB, 37° C.): 67.1 min; Lag time before ATP ([2]; antibiotic at 1.56 μg/mL, LB, 37° C.): 54.0 min; Lag time before ATP ([2]; antibiotic at 3.12 μg/mL, LB, 37° C.): 30.2 min; Lag time before ATP [2, 9]: 16.2 min
[H]/N=C(/N)N[C@H]1[C@H](O)[C@@H](O)[C@H](O[C@@H]2O[C@@H](C)[C@](O)(C=O)[C@H]2O[C@@H]2O[C@@H](CO)[C@H](O)[C@@H](O)[C@@H]2NC)[C@@H](N/C(N)=N\[H])[C@@H]1O [Streptomycin]	6.25 µg/mL (≈ 10.7 µM)	50 µg/mL (≈ 86 µM)	–	39 min	21 min	16 min	12 min	10 min	Shape of ATP release trace ([2]; LB medium, 37° C., FIG. 8): bi-phasic; Lag before ATP release (shortest, incompressible value) ([2]; LB, 37° C.): ~10 min
Bleomycin	–	–	100 µg/mL	–	164.0 min	142.0 min	98.0 min	78.0 min	MIC in MOPS glucose 0.4% [1, 15]: 200 µg/mL; Lag time before ATP [2, 16]: 71.5 min
Cc1c(N)nc([C@H](CC(N)=O)NC[C@H](N)C(N)=O)nc1C(=O)N[C@H](C(=O)N[C@H](C)[C@@H](O)[C@H](C)C(=O)N[C@H](C(=O)NCCC1=N[C@@H](c2nc(C(=O)NCCCCN=C(N)N)cs2)CS1)[C@@H](C)O)[C@@H](O[C@@H]1O[C@@H](CO)[C@@H](O)[C@H](O)[C@@H]1O[C@H]1O[C@H](CO)[C@@H](O)[C@H](OC(N)=O)[C@@H]1O)c1cnc[nH]1 [Zeocin]	–	–	200 µg/mL (≈ 140 µM)	112.2 min	113.1 min	97.5 min	85.7 min	68.6 min	MIC in MOPS glucose 0.4% [1, 15]: 200 µg/mL (≈ 140 µM); Lag time before ATP [2, 16]: 57.8 min; Lag time before ATP ([2]; antibiotic at 800 μg/mL, LB, 37° C.): 51.9 min
CCn1cc(C(=O)O)c(=O)c2ccc(C)nc21 [Nalidixic acid]	–	–	–	–	–	–	–	–	MIC ([1]; MG1655, read-out: MIC in LB): 256 µg/mL (≈ 1100 µM); MIC ([1]; MG1655, read-out: MIC in MOPS glucose 0.4%): 256 µg/mL (≈ 1100 µM); Lag time before ATP ([2]; antibiotic at 16 μg/mL, LB, 37° C.): 127.3 min; Lag time before ATP ([2]; antibiotic at 32 μg/mL, LB, 37° C.): 114.1 min; Lag time before ATP ([2]; antibiotic at 64 μg/mL, LB, 37° C.): 88.9 min; Lag time before ATP ([2]; antibiotic at 128 μg/mL, LB, 37° C.): 79.1 min; Lag time before ATP ([2]; antibiotic at 258 μg/mL, LB, 37° C.): 50.8 min; Lag time before ATP ([2]; antibiotic at 516 μg/mL, LB, 37° C.): 46.4 min
CC1COc2c(N3CCN(C)CC3)c(F)cc3c(=O)c(C(=O)O)cn1c23 (stereo not shown) [Ofloxacin]	4 µg/mL (≈ 11.1 µM)	4 µg/mL (≈ 11.1 µM)	–	–	–	–	–	–	Lag time of ATP release in minimal medium compared to rich medium (factor of decrease) ([2]; MOPS minimal medium vs LB): 2; Lag time before ATP ([2]; antibiotic at 1 μg/mL, LB, 37° C.): 105 min; Lag time before ATP ([2]; antibiotic at 2 μg/mL, LB, 37° C.): 95 min; Lag time before ATP ([2]; antibiotic at 4 μg/mL, LB, 37° C.): 84 min; Lag time before ATP ([2]; antibiotic at 8 μg/mL, LB, 37° C.): 77 min; Lag before ATP release (shortest, incompressible value) ([2]; LB, 37° C.): 77 min
COc1cc(Cc2cnc(N)nc2N)cc(OC)c1OC [Trimethoprim]	6.25 µg/mL (≈ 21.5 µM)	50 µg/mL (≈ 172 µM)	–	–	–	–	–	–	Concentration above which the drug inhibits the luciferase reaction [3]: above 200 μg/mL
